Laboratory results as given in PMC12627232 (MedComm, 2025).

Experiments:
[1] = In vitro metabolic assay, mouse liver microsomes; format: in vitro ADME
Experimental: Compounds were prepared in a working solution of 2 mg/mL with methanol. […]; Research Institute for Liver Disease (Shanghai) Co., Ltd) were mixed with NADPH (the final concentration is 4 mM), MgCl2 (the final concentration is 6 mM), and shaken at 37°C for 5 min. Then, compound solutions were added to the system and incubated for 0, 10, 20, 30, 60, 90, and 120 min at 37°C under shaking conditions. The mixture was quenched with cold acetonitrile and analyzed with a Shimadzu LC‐20AT system and a C18‐silica column (Thermo; 4.6 × 250 mm, 5 µm).

MDA-MB-231 = assay: CCK-8 antiproliferation assay; format: cell-based, human
Experimental: Cell lines purchased from the Cell Bank of Type Culture Collection of the Chinese Academy of Sciences (Shanghai, China) were passaged after resuscitation. […] The third to tenth passages of cells were used for experiments. […] After incubation, 20 µL CCK‐8 solution (MeilunBio) was added. Two hours later, absorption was measured by a Varioskan plate at 450 nm. Inhibition curves and IC50 values were simulated and calculated using the log(inhibitor) versus response (three parameters) mode via GraphPad Prism software.

[2] = In vivo pharmacokinetic study; details: Sprague-Dawley, rat, plasma, male SD rats
Experimental: The compound was prepared in a 1 mg/mL working solution using DMSO/solutol/saline. SD rats (6–8 weeks old, 180–200 g, male) were purchased from Beijing HFK Bioscience Co., Ltd. (Beijing, China) and fed in accordance with the guidelines for the care and use of laboratory animals of the ethical committee of Shandong University. The doses were 2.5 mg/kg (i.v.) and 10 mg/kg (i.g.), with three animals per treatment group. Blood samples were collected from the jugular vein at different time points using heparin sodium anticoagulation tubes. After anesthetizing rats with ether, blood samples were placed in an ice water mixture for 15 min, then centrifuged at 3000×g for 3 min to separate the plasma, and stored at −20°C. The LC–MS/MS was used to detect the concentration of the analyte at each time point, and the pharmacokinetic parameters were calculated using WinNolin8.2 software.

MDA-MB-231 cells [3] = assay: Immunofluorescence of ac-H3; format: cell-based, human; details: 1 µM, 24 h
Experimental: Cells (10^5 cells per plate) were seeded in confocal dishes and incubated with drugs or DMSO (equal volume to experimental groups) for 24 h. The medium was removed, and cells were fixed with 4% polyoxymethylene solution for 30 min. The cells were treated with 0.2% Triton X‐100 for 10 min and 1% BSA for 1 h at room temperature. After that, cells were washed twice with TBST and incubated with anti‐H3 antibody (Cell Signal Technology; #13998) at 4°C overnight. When incubation finished, cells were washed five times with TBST and Cy3‐labeled goat anti‐rabbit IgG (Beyotime; #A0516) and DAPI solution (Solarbio) were added. After 1 h incubation and washing five times with TBST, cells were captured with Leica TCS SP8 super‐resolution laser scanning confocal microscope. The colocalization of ac‐H3 and DAPI was analyzed with ImageJ.

MDA-MB-231 cells [4] = assay: GreenNuc assay for caspase-3 activation; format: cell-based, human; details: MDA-MB-231, 24 h
Experimental: Caspase‐3 activation was detected with the GreenNuc caspase‐3 assay kit for live cells (Beyotime Inc). Cells (10^5 cells per well) were seeded in black 96‐well plates and treated with different concentrations of compounds. After 24 h, the medium was discarded, and cells were treated with GreenNuc caspase‐3 substrate at room temperature for 30 min. Fluorescence intensity was measured using a Varioskan plate reader at 485/515 nm, and the final activation folds were calculated.

B16F10 syngeneic model = assay: B16F10 syngeneic model; format: in vivo; details: C57BL/6J mice, HDAC inhibitors by oral gavage, anti-PD-L1 intraperitoneal, 7-day treatment
Experimental: With the approval of the ethics committee of Shandong University, C57BL/6J mice were purchased from Charles River and fed in SPF conditions at the Model Animal Research Centre of Shandong University. To establish the B16F10 syngeneic model, cells in logarithmic growth phase were trypsinized with 0.25% trypsin, resuspended in sterile PBS, and adjusted to 1 × 10^6 cells/100 µL. The cell suspension (100 µL) was subcutaneously injected into the left axilla. When tumors reached to certain volume, mice were randomized (n = 5/group) and treated with Chidamide, LBH‐589, or SDFZ‐8 by oral gavage and intraperitoneal injection of anti‐PD‐L1. Tumor growth curves were plotted over a 7‐day treatment cycle. All procedures complied with AAALAC International guidelines for humane endpoint criteria.

HDAC8 = molecular target: T1, HDAC8 (Homo sapiens, UniProt Q9BY41); assay: HDACs enzymatic assay HDAC8; format: biochemical
T1 construct: purchased BPS BIOSCIENCE Inc 50008
Experimental: HDACs enzymatic assays were conducted according to our previous work. […] Substrates (Boc‐Lys(acetyl)‐AMC for HeLa nuclear extract, Ac‐Leu‐Gly‐Lys (Tfa)‐AMC for HDAC4, HDAC5, HDAC6, HDAC7, HDAC9, HDAC10, and HDAC11, Boc‐Lys(triflouroacetyl)‐AMC for HDAC8 and Ac‐Leu‐Gly‐Lys(acetyl)‐AMC for HDAC1, HDAC2, HDAC3) were added to the mixture. The blank group was set to no enzyme or drug but contains substrates and the control group was set to no drug but contains substrates and enzymes to each 96‐well plate. After 30 min of incubation at 37°C, the mixture was terminated with 1 mg/mL trypsin and 3 µM TSA. After another 30 min, the fluorescence intensity was measured using a Varioskan plate reader at 360/460 nm. […] The inhibition curves and IC50 values were simulated and calculated using the log(inhibitor) versus response (three parameters) mode in GraphPad Prism software.

T1 sequence (Q9BY41 whole entry): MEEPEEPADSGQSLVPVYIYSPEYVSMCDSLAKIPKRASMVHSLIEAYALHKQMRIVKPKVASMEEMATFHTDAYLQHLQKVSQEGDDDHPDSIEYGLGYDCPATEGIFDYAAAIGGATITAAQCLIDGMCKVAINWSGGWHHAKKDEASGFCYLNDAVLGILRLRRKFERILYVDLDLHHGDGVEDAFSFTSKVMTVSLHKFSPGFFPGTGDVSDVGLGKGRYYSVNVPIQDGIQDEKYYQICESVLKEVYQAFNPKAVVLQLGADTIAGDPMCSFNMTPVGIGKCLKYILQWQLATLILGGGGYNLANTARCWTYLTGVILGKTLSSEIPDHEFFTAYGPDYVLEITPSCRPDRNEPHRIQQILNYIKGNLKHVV

O=C(CCCCCCNC(=O)c1cc(OCCc2ccccc2)c2ccccc2n1)NO [SDFZ-8] showed a half-life ([1]; mouse liver microsomes, read-out: half-life T 1/2 in mouse liver microsomes) of 12.3 min, a microsomal CLint ([1]; mouse, microsomes) of 56.3 µL/min/mg and an IC50 (MDA-MB-231; Homo sapiens, MDA-MB-231, 48 h treatment, CCK-8) of 470 ± 80 nM. For the same molecule, the “antiproliferation activity better than SAHA” value (MDA-MB-231; MDA-MB-231 cells, versus SAHA) was “threefold”, the AUC(0-inf) ([2]; iv, i.v. 2.5 mg/kg) was 3120 ± 242 ng·h/mL and the AUC(0-t) ([2]; iv, i.v. 2.5 mg/kg) was 2730 ± 260 ng·h/mL. For the same molecule, the Cmax ([2]; iv, i.v. 2.5 mg/kg) was 1750 ± 498 ng/mL, the Tmax ([2]; iv, i.v. 2.5 mg/kg) was 4.8 ± 0.6 min and the half-life ([2]; iv, i.v. 2.5 mg/kg) was 137 ± 74.4 min. For the same molecule, the bioavailability ([2]; oral, i.g. 10 mg/kg vs i.v. 2.5 mg/kg, read-out: F% (oral bioavailability)) was 26.1%, the AUC(0-inf) ([2]; po, i.g. 10 mg/kg) was 3260 ± 663 ng·h/mL and the AUC(0-t) ([2]; po, i.g. 10 mg/kg) was 3080 ± 206 ng·h/mL. For the same molecule, the Cmax ([2]; po, i.g. 10 mg/kg) was 659 ± 63.1 ng/mL, the Tmax ([2]; po, i.g. 10 mg/kg) was 19.8 ± 8.4 min and the half-life ([2]; po, i.g. 10 mg/kg) was 344 ± 90.6 min. The “immunofluorescence intensities of ac-H3” value (MDA-MB-231 cells [3]) was “notably stronger than those of cells treated with SAHA”, the caspase-3 activation (MDA-MB-231 cells [4]) was “significantly higher than that observed for SAHA” and the TGI (B16F10 syngeneic model) was 75%. The IC50 (HDAC8; Class I, mean ± SD of three) was 750 ± 70 nM and the “selectivity toward HDAC8” value (HDAC8; relative to HDAC1) was “more than 800 fold”.
